These are literature values, as cited in PubChem BioAssay AID1259409 (Chemical Carcinogenesis Research Information System (CCRIS), 2018).

SMILES strings stand for the structures.

For the series, the system named is rodent chemically induced tumor inhibition, incidence and multiplicity. The experiment in a line: CCRIS tumor inhibitor studies. The settings on record: Route [Inhibitor]: ORAL.

On to `Cc1c(-c2cnccn2)ssc1=S`, for which the “tumour outcome (control, treated, inhibition, significance)” value is 16.7%, 20.7%, -24%, not significant (Carcinogen: NITROSOBIS(2-OXOPROPYL)AMINE [60599-38-4], Dose [Inhibitor]: 200 PPM IN DIET FOR 4 WK BEGINNING 1 WK PRIOR TO FIRST CARCINOGEN DOSE (STUDY DURATION: 52 WK), Species: HAMSTER, Strain/Sex: SYRIAN/FEMALE, Target Tissue: Type of Lesion: LIVER: HEPATOCELLULAR ADENOMA, Dose [Carcinogen]: 10 MG/KG BW 1X/WK FOR 3 WK (STUDY DURATION: 52 WK)); 6.7%, 6.9%, -3%, not significant (Carcinogen: NITROSOBIS(2-OXOPROPYL)AMINE [60599-38-4], Dose [Inhibitor]: 200 PPM IN DIET FOR 4 WK BEGINNING 1 WK PRIOR TO FIRST CARCINOGEN DOSE (STUDY DURATION: 52 WK), Species: HAMSTER, Strain/Sex: SYRIAN/FEMALE, Target Tissue: Type of Lesion: LIVER: HEPATOCELLULAR CARCINOMA, Dose [Carcinogen]: 10 MG/KG BW 1X/WK FOR 3 WK (STUDY DURATION: 52 WK)); 46.7%, 37.9%, 19%, not significant (Carcinogen: NITROSOBIS(2-OXOPROPYL)AMINE [60599-38-4], Dose [Inhibitor]: 200 PPM IN DIET FOR 4 WK BEGINNING 1 WK PRIOR TO FIRST CARCINOGEN DOSE (STUDY DURATION: 52 WK), Species: HAMSTER, Strain/Sex: SYRIAN/FEMALE, Target Tissue: Type of Lesion: LUNG: ADENOCARCINOMA, Dose [Carcinogen]: 10 MG/KG BW 1X/WK FOR 3 WK (STUDY DURATION: 52 WK)); 86.7%, 75.9%, 12%, not significant (Carcinogen: NITROSOBIS(2-OXOPROPYL)AMINE [60599-38-4], Dose [Inhibitor]: 200 PPM IN DIET FOR 4 WK BEGINNING 1 WK PRIOR TO FIRST CARCINOGEN DOSE (STUDY DURATION: 52 WK), Species: HAMSTER, Strain/Sex: SYRIAN/FEMALE, Target Tissue: Type of Lesion: LUNG: ADENOMA, Dose [Carcinogen]: 10 MG/KG BW 1X/WK FOR 3 WK (STUDY DURATION: 52 WK)); 13/30 (43.3%), 20/29 (68.9%), -59%, not significant (Carcinogen: NITROSOBIS(2-OXOPROPYL)AMINE [60599-38-4], Dose [Inhibitor]: 200 PPM IN DIET FOR 4 WK BEGINNING 1 WK PRIOR TO FIRST CARCINOGEN DOSE (STUDY DURATION: 52 WK), Species: HAMSTER, Strain/Sex: SYRIAN/FEMALE, Target Tissue: Type of Lesion: PANCREAS: ADENOCARCINOMA, Dose [Carcinogen]: 10 MG/KG BW 1X/WK FOR 3 WK (STUDY DURATION: 52 WK)); 13.3%, 21.1%, -59%, not significant (Carcinogen: NITROSOBIS(2-OXOPROPYL)AMINE [60599-38-4], Dose [Inhibitor]: 400 PPM IN DIET FOR 4 WK BEGINNING 1 WK PRIOR TO FIRST CARCINOGEN DOSE (STUDY DURATION: 52 WK), Species: HAMSTER, Strain/Sex: SYRIAN/FEMALE, Target Tissue: Type of Lesion: GALL BLADDER: ADENOMA, Dose [Carcinogen]: 10 MG/KG BW 1X/WK FOR 3 WK (STUDY DURATION: 52 WK)). Further, the “tumour outcome (control, treated, inhibition, significance)” value is reported as 3.3%, 3.4%, -3%, not significant (Carcinogen: NITROSOBIS(2-OXOPROPYL)AMINE [60599-38-4], Dose [Inhibitor]: 400 PPM IN DIET FOR 4 WK BEGINNING 1 WK PRIOR TO FIRST CARCINOGEN DOSE (STUDY DURATION: 52 WK), Species: HAMSTER, Strain/Sex: SYRIAN/FEMALE, Target Tissue: Type of Lesion: KIDNEY: RENAL CELL ADENOMA, Dose [Carcinogen]: 10 MG/KG BW 1X/WK FOR 3 WK (STUDY DURATION: 52 WK)); 6.7%, 10.3%, -54%, not significant (Carcinogen: NITROSOBIS(2-OXOPROPYL)AMINE [60599-38-4], Dose [Inhibitor]: 400 PPM IN DIET FOR 4 WK BEGINNING 1 WK PRIOR TO FIRST CARCINOGEN DOSE (STUDY DURATION: 52 WK), Species: HAMSTER, Strain/Sex: SYRIAN/FEMALE, Target Tissue: Type of Lesion: KIDNEY: RENAL CELL CARCINOMA, Dose [Carcinogen]: 10 MG/KG BW 1X/WK FOR 3 WK (STUDY DURATION: 52 WK)); 6.7%, 0.0%, 100%, not significant (Carcinogen: NITROSOBIS(2-OXOPROPYL)AMINE [60599-38-4], Dose [Inhibitor]: 400 PPM IN DIET FOR 4 WK BEGINNING 1 WK PRIOR TO FIRST CARCINOGEN DOSE (STUDY DURATION: 52 WK), Species: HAMSTER, Strain/Sex: SYRIAN/FEMALE, Target Tissue: Type of Lesion: LIVER: CHOLANGIOCELLULAR ADENOMA, Dose [Carcinogen]: 10 MG/KG BW 1X/WK FOR 3 WK (STUDY DURATION: 52 WK)); 16.7%, 14.3%, 14%, not significant (Carcinogen: NITROSOBIS(2-OXOPROPYL)AMINE [60599-38-4], Dose [Inhibitor]: 400 PPM IN DIET FOR 4 WK BEGINNING 1 WK PRIOR TO FIRST CARCINOGEN DOSE (STUDY DURATION: 52 WK), Species: HAMSTER, Strain/Sex: SYRIAN/FEMALE, Target Tissue: Type of Lesion: LIVER: HEPATOCELLULAR ADENOMA, Dose [Carcinogen]: 10 MG/KG BW 1X/WK FOR 3 WK (STUDY DURATION: 52 WK)); 6.7%, 7.1%, -6%, not significant (Carcinogen: NITROSOBIS(2-OXOPROPYL)AMINE [60599-38-4], Dose [Inhibitor]: 400 PPM IN DIET FOR 4 WK BEGINNING 1 WK PRIOR TO FIRST CARCINOGEN DOSE (STUDY DURATION: 52 WK), Species: HAMSTER, Strain/Sex: SYRIAN/FEMALE, Target Tissue: Type of Lesion: LIVER: HEPATOCELLULAR CARCINOMA, Dose [Carcinogen]: 10 MG/KG BW 1X/WK FOR 3 WK (STUDY DURATION: 52 WK)); 46.7%, 17.2%, 63%, p<0.05 (Carcinogen: NITROSOBIS(2-OXOPROPYL)AMINE [60599-38-4], Dose [Inhibitor]: 400 PPM IN DIET FOR 4 WK BEGINNING 1 WK PRIOR TO FIRST CARCINOGEN DOSE (STUDY DURATION: 52 WK), Species: HAMSTER, Strain/Sex: SYRIAN/FEMALE, Target Tissue: Type of Lesion: LUNG: ADENOCARCINOMA, Dose [Carcinogen]: 10 MG/KG BW 1X/WK FOR 3 WK (STUDY DURATION: 52 WK)). In addition, the “tumour outcome (control, treated, inhibition, significance)” value by setting is: (Carcinogen: NITROSOBIS(2-OXOPROPYL)AMINE [60599-38-4], Dose [Inhibitor]: 400 PPM IN DIET FOR 4 WK BEGINNING 1 WK PRIOR TO FIRST CARCINOGEN DOSE (STUDY DURATION: 52 WK), Species: HAMSTER, Strain/Sex: SYRIAN/FEMALE, Target Tissue: Type of Lesion: LUNG: ADENOMA, Dose [Carcinogen]: 10 MG/KG BW 1X/WK FOR 3 WK (STUDY DURATION: 52 WK)) 86.7%,58.6%, 32%, p<0.05; (Carcinogen: NITROSOBIS(2-OXOPROPYL)AMINE [60599-38-4], Dose [Inhibitor]: 400 PPM IN DIET FOR 4 WK BEGINNING 1 WK PRIOR TO FIRST CARCINOGEN DOSE (STUDY DURATION: 52 WK), Species: HAMSTER, Strain/Sex: SYRIAN/FEMALE, Target Tissue: Type of Lesion: PANCREAS: ADENOCARCINOMA, Dose [Carcinogen]: 10 MG/KG BW 1X/WK FOR 3 WK (STUDY DURATION: 52 WK)) 13/30 (43.3%), 19/28 (67.9%), -57%, not significant; (Dose [Inhibitor]: 0, 0.075% IN DIET FOR 4 WK BEGINNING 1 WK PRIOR TO CARCINOGEN TREATMENT (STUDY DURATION: 23 MO), Species: RAT, Strain/Sex: F344/MALE, Target Tissue: Type of Lesion: LIVER: ADENOMA, Dose [Carcinogen]: 25 UG IN 0.1 ML TRICAPRYLIN 5 D/WK FOR 2 WK, Promoter: NONE USED) 4/45 (9%), 0/46 (0%), 100%, p<0.05; (Dose [Inhibitor]: 0, 0.075% IN DIET FOR 4 WK BEGINNING 1 WK PRIOR TO CARCINOGEN TREATMENT (STUDY DURATION: 23 MO), Species: RAT, Strain/Sex: F344/MALE, Target Tissue: Type of Lesion: LIVER: CARCINOMA, Dose [Carcinogen]: 25 UG IN 0.1 ML TRICAPRYLIN 5 D/WK FOR 2 WK, Promoter: NONE USED) 5/45 (11%), 0/46 (0%), 100%, p<0.05. In addition, for the setting “Carcinogen: NITROSOBIS(2-OXOPROPYL)AMINE [60599-38-4], Dose [Inhibitor]: 400 PPM IN DIET FOR 4 WK BEGINNING 1 WK PRIOR TO FIRST CARCINOGEN DOSE (STUDY DURATION: 52 WK), Species: HAMSTER, Strain/Sex: SYRIAN/FEMALE, Target Tissue: Type of Lesion: LIVER: CHOLANGIOCELLULAR CARCINOMA, Dose [Carcinogen]: 10 MG/KG BW 1X/WK FOR 3 WK (STUDY DURATION: 52 WK)”, the outcome is reported as 0.0%, 7.1%, -100%, not significant.
